In patent US12091426B2, “Bifunctional degraders of hematopoietic progenitor kinase and therapeutic uses thereof” (Nurix Therapeutics, Inc., priority 2021, dated 2024):

Biological target: T1, HPK1 (Homo sapiens, UniProt Q92918)
T1 construct: A HiBiT tag was introduced by CRISPR on the N terminus of HPK1 in Jurkat cells; host or cells: Jurkat cells (ATCC TIB-152), monoclonal line with CRISPR knock-in of HiBiT at the endogenous HPK1 locus
Test: HPK1 Cellular HiBit Degradation Assay
Format: cell-based
Settings: HiBiT HPK1 Jurkat cells, 24 hrs; for DC50: concentration at which 50% of HPK1 was remaining, read-out: DC50 Category; for Dmax: Jurkat, maximum degradation vs DMSO vehicle control, read-out: Dmax Category
Summary of the method: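 Degraders are dosed in an 11-point series (10 uM to 0.1 nM final) onto Jurkat cells carrying an N-terminal HiBiT tag on endogenous HPK1. After 24 hrs at 37° C, lysis-based HiBiT luminescence quantifies remaining HPK1 relative to vehicle, and curve fitting gives DC50 and Dmax.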

T1 sequence (Q92918 whole entry): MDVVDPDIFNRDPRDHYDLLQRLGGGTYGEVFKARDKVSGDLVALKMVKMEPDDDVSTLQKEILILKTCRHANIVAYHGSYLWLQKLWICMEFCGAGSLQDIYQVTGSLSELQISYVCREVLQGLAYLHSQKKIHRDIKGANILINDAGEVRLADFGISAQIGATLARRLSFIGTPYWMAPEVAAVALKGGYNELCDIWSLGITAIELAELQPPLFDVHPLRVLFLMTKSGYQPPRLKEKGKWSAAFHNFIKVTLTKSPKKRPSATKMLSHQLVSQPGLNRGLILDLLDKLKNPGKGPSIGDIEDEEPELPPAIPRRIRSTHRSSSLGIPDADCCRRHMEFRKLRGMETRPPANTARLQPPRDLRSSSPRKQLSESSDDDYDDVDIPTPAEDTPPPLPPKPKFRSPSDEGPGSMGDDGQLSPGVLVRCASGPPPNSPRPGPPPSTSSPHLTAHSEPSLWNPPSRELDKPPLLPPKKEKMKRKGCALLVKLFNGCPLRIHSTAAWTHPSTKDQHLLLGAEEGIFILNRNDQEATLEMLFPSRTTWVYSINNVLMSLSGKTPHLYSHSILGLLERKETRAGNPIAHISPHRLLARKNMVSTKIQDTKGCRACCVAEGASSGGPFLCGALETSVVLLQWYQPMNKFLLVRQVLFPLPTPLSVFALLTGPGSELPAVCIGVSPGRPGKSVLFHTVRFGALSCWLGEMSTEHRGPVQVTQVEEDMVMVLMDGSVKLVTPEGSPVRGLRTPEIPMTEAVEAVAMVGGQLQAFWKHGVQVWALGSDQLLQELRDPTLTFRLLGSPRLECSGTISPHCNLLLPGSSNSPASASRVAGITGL

Compound | DC50 [nM] | Dmax [%]
CC(C)n1cnc2cc(-c3ccc4c(c3)N([C@H]3C[C@@H](N5CCCCC5)C3)C(=O)C43CCN(C(=O)C4CCN(C(=O)C5CCN(c6ccc(N7CCC(=O)NC7=O)cn6)CC5)CC4)CC3)nc(Nc3ccccc3F)c21 [Example 80, 1-[6-(4-{4-[(6-{4-[(2-fluorophenyl)amino]-3-(propan-2-yl)-3H-imidazo[4,5-c]pyridin-6-yl}-2-oxo-1-[(1S,3S)-3-(piperidin-1-yl)cyclobutyl]-1,2-dihydrospiro[indole-3,4′-piperidin]-1′-yl)carbonyl]piperidine-1-carbonyl}piperidin-1-yl)pyridin-3-yl]-1,3-diazinane-2,4-dione] | < 100 | 70 to 85
CC(C)n1cnc2cc(-c3ccc4c(c3)N([C@H]3C[C@@H](N5CCCCC5)C3)C(=O)C43CCN(C(=O)C4CCN(C(=O)C5CCN(c6ccc(C7CCC(=O)NC7=O)cn6)CC5)CC4)CC3)nc(NC3CC3)c21 (stereo partly drawn) [Example 73, 3-(6-(4-(4-(6-(4-(cyclopropylamino)-3-isopropyl-3H-imidazo[4,5-c]pyridin-6-yl)-2-oxo-1-((1S,3S)-3-(piperidin-1-yl)cyclobutyl)spiro[indoline-3,4′-piperidine]-1′-carbonyl)piperidine-1-carbonyl)piperidin-1-yl)pyridin-3-yl)piperidine-2,6-dione] | 100 to 500 | 70 to 85
CC(C)n1cnc2cc(-c3ccc4c(c3)N([C@H]3C[C@@H](N5CCCCC5)C3)C(=O)C43CCN(C(=O)C4CN(C(=O)C5CCN(c6ccc(C7CCC(=O)NC7=O)cn6)CC5)CC(C)(C)C4)CC3)nc(NC3CC3)c21 (mixture of isomers) [Example 250, (3RS)-3-(6-{4-[5-({6-[4-(cyclopropylamino)-3-(propan-2-yl)-3H-imidazo[4,5-c]pyridin-6-yl]-2-oxo-1-[(1S,3S)-3-(piperidin-1-yl)cyclobutyl]-1,2-dihydrospiro[indole-3,4′-piperidin]-1′-yl}carbonyl)-3,3-dimethylpiperidine-1-carbonyl]piperidin-1-yl}pyridin-3-yl)piperidine-2,6-dione] | < 100 | 70 to 85
CC(C)n1cnc2cc(-c3ccc4c(c3)N([C@H]3C[C@@H](N5CCCCC5)C3)C(=O)C43CCN(C(=O)C4(C#N)CCN(C(=O)C5CCN(c6ccc(C7CCC(=O)NC7=O)cc6)CC5)CC4)CC3)nc(NC3CC3)c21 (mixture of isomers) [Example 258, 4-({6-[4-(cyclopropylamino)-3-(propan-2-yl)-3H-imidazo[4,5-c]pyridin-6-yl]-2-oxo-1-[(1S,3S)-3-(piperidin-1-yl)cyclobutyl]-1,2-dihydrospiro[indole-3,4′-piperidin]-1′-yl}carbonyl)-1-(1-{4-[(3RS)-2,6-dioxopiperidin-3-yl]phenyl}piperidine-4-carbonyl)piperidine-4-carbonitrile] | < 100 | 70 to 85
CC(C)n1cnc2cc(-c3ccc4c(c3)N([C@H]3C[C@@H](N5CC6CCC(C5)O6)C3)C(=O)C43CCN(C(=O)C4(C)CCN(C(=O)C5CCN(c6ccc(C7CCC(=O)NC7=O)cn6)CC5)CC4)CC3)nc(NC3CC3)c21 (mixture of isomers) [Example 204, (3RS)-3-(6-{4-[4-({6-[4-(cyclopropylamino)-3-(propan-2-yl)-3H-imidazo[4,5-c]pyridin-6-yl]-2-oxo-1-[(1S,3S)-3-{8-oxa-3-Azabicyclo[3.2.1]octan-3-yl}cyclobutyl]-1,2-dihydrospiro[indole-3,4′-piperidin]-1′-yl}carbonyl)-4-methylpiperidine-1-carbonyl]piperidin-1-yl}pyridin-3-yl)piperidine-2,6-dione] | 100 to 500 | 70 to 85
CC(C)n1cnc2cc(-c3ccc4c(c3)N([C@H]3C[C@@H](N5CCCCC5)C3)C(=O)C43CCN(C(=O)c4ccc(C(=O)N5CCC(N(C)c6ccc(C7CCC(=O)NC7=O)cn6)CC5)cc4)CC3)nc(Nc3ccccc3F)c21 (mixture of isomers) [Example 140, (3RS)-3-{6-[(1-{4-[(6-{4-[(2-fluorophenyl)amino]-3-(propan-2-yl)-3H-imidazo[4,5-c]pyridin-6-yl}-2-oxo-1-[(1S,3S)-3-(piperidin-1-yl)cyclobutyl]-1,2-dihydrospiro[indole-3,4′-piperidin]-1′-yl)carbonyl]benzoyl}piperidin-4-yl)(methyl)amino]pyridin-3-yl}piperidine-2,6-dione] | 500 to 1000 | 50 to 70
CC(C)n1cnc2cc(-c3ccc4c(c3)N([C@H]3C[C@@H](N5CCCCC5)C3)C(=O)C43CCN(C(=O)[C@@H]4CCN(C(=O)[C@H]5CC[C@H](Oc6ccc(C7CCC(=O)NC7=O)cc6)CC5)C4)CC3)nc(NC3CC3)c21 (stereo partly drawn) [Example 13, 3-(4-{[(1R,4R)-4-[(3R)-3-({6-[4-(cyclopropylamino)-3-(propan-2-yl)-3H-imidazo[4,5-c]pyridin-6-yl]-2-oxo-1-[(1S,3S)-3-(piperidin-1-yl)cyclobutyl]-1,2-dihydrospiro[indole-3,4′-piperidin]-1′-yl}carbonyl)pyrrolidine-1-carbonyl]cyclohexyl]oxy}phenyl)piperidine-2,6-dione] | < 100 | > 85
CC(C)n1cnc2cc(-c3ccc4c(c3)N([C@H]3C[C@@H](N5CCCCC5)C3)C(=O)C43CCN(C(=O)C4(C)CCN(C(=O)C5CCN(c6ccc(C7CCC(=O)NC7=O)cc6F)CC5)CC4)CC3)nc(NC3CC3)c21 (mixture of isomers) [Example 152, (3RS)-3-(4-{4-[4-({6-[4-(cyclopropylamino)-3-isopropylimidazo[4,5-c]pyridin-6-yl]-2-oxo-1-[(1S,3S)-3-(piperidin-1-yl)cyclobutyl]spiro[indole-3,4′-piperidin]-1′-yl}carbonyl)-4-methylpiperidine-1-carbonyl]piperidin-1-yl}-3-Fluorophenyl)piperidine-2,6-dione] | < 100 | 70 to 85
CC(C)n1cnc2cc(-c3ccc4c(c3)N([C@H]3C[C@@H](N5CCCCC5)C3)C(=O)C43CCN(C(=O)C4CCN(C(=O)CC5CCN(c6ccc(C7CCC(=O)NC7=O)cn6)CC5)CC4)CC3)nc(Nc3ccccc3F)c21 (stereo partly drawn) [Example 92, 3-(6-(4-(2-(4-(6-(4-((2-fluorophenyl)amino)-3-isopropyl-3H-imidazo[4,5-c]pyridin-6-yl)-2-oxo-1-((1S,3S)-3-(piperidin-1-yl)cyclobutyl)spiro[indoline-3,4′-piperidine]-1′-carbonyl)piperidin-1-yl)-2-oxoethyl)piperidin-1-yl)pyridin-3-yl)piperidine-2,6-dione] | < 100 | 70 to 85
CC(C)n1cnc2cc(-c3ccc4c(c3)N([C@H]3C[C@@H](N5CCCCC5)C3)C(=O)C43CCN(C(=O)C4(C)CCN(C(=O)C5CCN(c6ccc(C7CCC(=O)NC7=O)nc6)CC5)CC4)CC3)nc(Nc3ccncc3F)c21 (mixture of isomers) [Example 120, (3RS)-3-[5-(4-{4-[(6-{4-[(3-fluoropyridin-4-yl)amino]-3-(propan-2-yl)-3H-imidazo[4,5-c]pyridin-6-yl}-2-oxo-1-[(1S,3S)-3-(piperidin-1-yl)cyclobutyl]-1,2-dihydrospiro[indole-3,4′-piperidin]-1′-yl)carbonyl]-4-methylpiperidine-1-carbonyl}piperidin-1-yl)pyridin-2-yl]piperidine-2,6-dione] | < 100 | 70 to 85
CC(C)n1cnc2cc(-c3ccc4c(c3)N([C@H]3C[C@@H](N5CCCCC5)C3)C(=O)C43CCN(C(=O)C4(F)CCCN(C(=O)C5CCN(c6ccc(C7CCC(=O)NC7=O)cn6)CC5)C4)CC3)nc(NC3CC3)c21 (mixture of isomers) [Example 280, (3RS)-3-(6-{4-[3-({6-[4-(cyclopropylamino)-3-(propan-2-yl)-3H-imidazo[4,5-c]pyridin-6-yl]-2-oxo-1-[(1S,3S)-3-(piperidin-1-yl)cyclobutyl]-1,2-dihydrospiro[indole-3,4′-piperidin]-1′-yl}carbonyl)-3-fluoropiperidine-1-carbonyl]piperidin-1-yl}pyridin-3-yl)piperidine-2,6-dione] | < 100 | 70 to 85
CC(C)n1cnc2cc(-c3ccc4c(c3)N([C@H]3C[C@@H](N5CCCCC5)C3)C(=O)C43CCN(C(=O)[C@]45C[C@H]4CN(C(=O)C4CCN(c6ccc(C7CCC(=O)NC7=O)cc6)CC4)C5)CC3)nc(NC3CC3)c21 (mixture of isomers) [Example 263, (3RS)-3-(4-{4-[(1R,5R)-1-({6-[4-(cyclopropylamino)-3-(propan-2-yl)-3H-imidazo[4,5-c]pyridin-6-yl]-2-oxo-1-[(1S,3S)-3-(piperidin-1-yl)cyclobutyl]-1,2-dihydrospiro[indole-3,4′-piperidin]-1′-yl}carbonyl)-3-azabicyclo[3.1.0]hexane-3-carbonyl]piperidin-1-yl}phenyl)piperidine-2,6-dione] | < 100 | 50 to 70
CC(C)n1cnc2cc(-c3ccc4c(c3)N([C@H]3C[C@@H](N5CCCCC5)C3)C(=O)C43CCN(C(=O)C4CCN(C(=O)C5CCN(c6ccc(C(=O)NC7CCC(=O)NC7=O)nc6)CC5)CC4)CC3)nc(Nc3ccccc3F)c21 (mixture of isomers) [Example 83, N-[(3RS)-2,6-dioxopiperidin-3-yl]-5-(4-{4-[(6-{4-[(2-fluorophenyl)amino]-3-(propan-2-yl)-3H-imidazo[4,5-c]pyridin-6-yl}-2-oxo-1-[(1S,3S)-3-(piperidin-1-yl)cyclobutyl]-1,2-dihydrospiro[indole-3,4′-piperidin]-1′-yl)carbonyl]piperidine-1-carbonyl}piperidin-1-yl)pyridine-2-carboxamide] | 100 to 500 | 50 to 70
